Measured values published in BindingDB's records for PubMed 1857334 (National Institute of Mental Health, 1991).

Molecular target: T1, Adenosine receptor A1 (Rattus norvegicus, UniProt P25099)
T1 sequence (P25099 whole entry): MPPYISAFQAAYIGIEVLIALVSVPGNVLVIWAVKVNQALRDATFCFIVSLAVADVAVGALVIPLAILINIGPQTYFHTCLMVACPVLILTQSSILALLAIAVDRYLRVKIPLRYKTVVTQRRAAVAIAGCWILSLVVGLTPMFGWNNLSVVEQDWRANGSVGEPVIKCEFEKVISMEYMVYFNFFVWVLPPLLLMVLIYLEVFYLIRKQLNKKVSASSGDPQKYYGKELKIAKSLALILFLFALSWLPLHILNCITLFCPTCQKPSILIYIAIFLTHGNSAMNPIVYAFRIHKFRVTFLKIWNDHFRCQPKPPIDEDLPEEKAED

Compound: CCCn1c(=O)c2[nH]c(-c3ccc(OCC(=O)NCCN)cc3)nc2n(CCC)c1=O [N-(2-Amino-ethyl)-2-[4-(2,6-dioxo-1,3-dipropyl-2,3,6,9-tetrahydro-1H-purin-8-yl)-phenoxy]-acetamide]
- Ki: 2 nM
